The text below walks through data of ChEMBL document CHEMBL1201862, “PubChem BioAssay data set” (2004).

Among the test systems are 786-0; CAKI-1; COLO 205; HOP-92; IGROV-1; KM12; LOX IMVI; M19-MEL; MCF7; MDA-N; MOLT-4; RPMI-8226; SF-268; SF-295; SF-539; SN12C; SNB-19; SNB-75; SW-620; UACC-62.
What all share (test): DTP human tumour cell line panel, 48 h

Molecules are shown by their SMILES.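 Five compound concentrations were applied to cells in 96-well plates for 48 hours; endpoints were derived by simple linear interpolation of the resulting dose-response curve. GI50 = concentration required for 50% inhibition of growth.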 Active and inactive are the calls of the source. Rule as the data show it: active = GI50 up to about 1.1 µM and inactive = higher.

`CCOC(=O)c1c(C)c(C)n2c1NC(=O)C2`: the GI50 in the assay with 786-0 was > 49.7 µM (inactive); in the assay on CAKI-1, > 59.4 µM (inactive); in the assay on COLO 205, > 73.6 µM (inactive); in the assay on HOP-92, > 91.4 µM (inactive); in the assay with IGROV-1, > 72.1 µM (inactive); in the assay with KM12, > 100 µM (inactive). For the same compound, the GI50 was > 68.7 µM (inactive) in the assay on LOX IMVI; > 100 µM (inactive) in the assay with M19-MEL; 25.2 µM (inactive) with MCF7; > 100 µM (inactive) with MDA-N; > 100 µM (inactive) in the assay with MOLT-4; > 48 µM (inactive) with RPMI-8226. The GI50 in the assay with SF-268 is > 42.8 µM (inactive); in the assay on SF-295 it was > 80 µM (inactive); with SF-539, > 57 µM (inactive); in the assay with SN12C, > 54.3 µM (inactive); in the assay with SNB-19, 55.3 µM (inactive); in the assay on SNB-75, 39.1 µM (inactive). Also, the GI50 in the assay with SW-620 is > 54 µM (inactive); with UACC-62, > 60.3 µM (inactive).

Turning to `NC(=O)COc1ccccc1`, the GI50 with 786-0, with CAKI-1, with COLO 205, in the assay on HOP-92, in the assay with IGROV-1 and in the assay with KM12 was > 100 µM (inactive) each time. In addition, the GI50 in the assay with LOX IMVI, in the assay with M19-MEL, in the assay with MOLT-4, with RPMI-8226, in the assay with SF-268 and with SF-295 was > 100 µM (inactive) throughout. In addition, the GI50 with SF-539, in the assay on SN12C, in the assay with SNB-19, with SNB-75, with SW-620 and with UACC-62 was > 100 µM (inactive) throughout.

As to `O=C1N=C2N=C(c3ccc(Cl)cc3)N(c3ccc(Cl)cc3)N2Sc2ccccc21`, the GI50 with 786-0 was > 100 µM (inactive); in the assay on CAKI-1 it was > 100 µM (inactive); in the assay on COLO 205 it was > 100 µM (inactive); with HOP-92 it was 86.5 µM (inactive); in the assay with IGROV-1, > 100 µM (inactive); with KM12, 83.9 µM (inactive). For the same compound, the GI50 in the assay with LOX IMVI is > 100 µM (inactive); in the assay with M19-MEL it was > 100 µM (inactive); in the assay on MOLT-4 it was > 100 µM (inactive); in the assay with RPMI-8226, > 100 µM (inactive); in the assay with SF-268, > 100 µM (inactive); with SF-295, 64.6 µM (inactive). The GI50 was > 100 µM (inactive) with SF-539; > 100 µM (inactive) in the assay with SN12C; 47.2 µM (inactive) with SNB-19; > 100 µM (inactive) with SNB-75; > 100 µM (inactive) in the assay on SW-620; > 100 µM (inactive) in the assay on UACC-62.

Consider `CC1(C2CCC3(C)C(C2)C3Sc2ccccc2)OCCO1` (configuration not stated), for which the GI50 is 15.1 µM (inactive) with 786-0; 20.3 µM (inactive) in the assay on CAKI-1; 19.4 µM (inactive) in the assay with COLO 205; 23.3 µM (inactive) in the assay on HOP-92; 35.7 µM (inactive) with IGROV-1; 25.6 µM (inactive) in the assay on KM12. Also, the GI50 is 23.7 µM (inactive) in the assay with LOX IMVI; 19.8 µM (inactive) in the assay with M19-MEL; 18 µM (inactive) in the assay with MOLT-4; 13.5 µM (inactive) in the assay with RPMI-8226; 34.8 µM (inactive) with SF-268; 21.5 µM (inactive) in the assay with SF-295. Also, the GI50 in the assay with SF-539 is 20.8 µM (inactive); in the assay on SN12C, 20.4 µM (inactive); in the assay with SNB-19, 27 µM (inactive); with SNB-75 it was 54.6 µM (inactive); in the assay on SW-620, 21.5 µM (inactive); with UACC-62, 19.4 µM (inactive).

As to `COC1CC(CC2CCC(C)C(C(C)C(=O)O)O2)OC2(OC(C)(C3CCC(C)(C4OC(C5OC(O)(CO)C(C)CC5C)CC4C)O3)CC2C)C1C` (configuration not stated), the concentration for 50% growth inhibition (GI50) with 786-0 is 1.08 µM (active); with CAKI-1, 0.906 µM (active); in the assay on COLO 205 it was 0.116 µM (active); in the assay with HOP-92 it was 1.07 µM (active); in the assay with IGROV-1, 1.56 µM (inactive); in the assay on KM12, 0.773 µM (active). Besides, the GI50 with LOX IMVI was 1.28 µM (inactive); in the assay with M19-MEL, 0.239 µM (active); with MCF7, 0.15 µM (active); with MDA-N, 0.757 µM (active); in the assay with MOLT-4, 0.347 µM (active); in the assay with RPMI-8226, 0.167 µM (active). Moreover, the GI50 with SF-268 is 1.88 µM (inactive); in the assay on SF-295 it was 1.15 µM (inactive); in the assay with SF-539, 0.19 µM (active); in the assay on SN12C, 0.257 µM (active); in the assay on SNB-19 it was 0.359 µM (active); with SNB-75 it was 0.36 µM (active). The GI50 was 1.52 µM (inactive) with SW-620 and 1.61 µM (inactive) in the assay with UACC-62.

As for `CSC1NC=Nc2c1sc(=S)n2-c1ccccc1` (configuration not stated), the GI50 with 786-0 was > 100 µM (inactive); with CAKI-1 it was > 100 µM (inactive); with COLO 205 it was > 100 µM (inactive); in the assay with HOP-92, 83.8 µM (inactive); in the assay on IGROV-1 it was > 100 µM (inactive); with KM12 it was > 100 µM (inactive). The GI50 in the assay with LOX IMVI, with M19-MEL, in the assay with MOLT-4, in the assay with RPMI-8226, in the assay with SF-268 and with SF-295 was > 100 µM (inactive) each time. In addition, the GI50 is > 100 µM (inactive) in the assay on SF-539; > 100 µM (inactive) in the assay on SN12C; > 100 µM (inactive) in the assay on SNB-19; 28.4 µM (inactive) in the assay on SNB-75; > 100 µM (inactive) in the assay with SW-620; > 100 µM (inactive) in the assay on UACC-62.

As for `CC[C@@]1(O)C(=O)OCc2c1cc1n(c2=O)Cc2cc3cc(OC)ccc3nc2-1`, the GI50 with 786-0 was 0.00923 µM (active); in the assay with CAKI-1, 0.00476 µM (active); in the assay with COLO 205 it was 0.116 µM (active); in the assay with HOP-92, 0.0114 µM (active); with IGROV-1, 0.106 µM (active); in the assay with KM12, 0.139 µM (active). Further, the concentration for 50% growth inhibition (GI50) is 0.0221 µM (active) in the assay on LOX IMVI; 0.0537 µM (active) with M19-MEL; 0.0041 µM (active) in the assay on MCF7; 0.142 µM (active) with MDA-N; 0.00458 µM (active) in the assay on MOLT-4; 0.107 µM (active) in the assay with RPMI-8226. The GI50 in the assay with SF-268 was 0.00509 µM (active); with SF-295, 0.008 µM (active); in the assay on SF-539, 0.0033 µM (active); in the assay on SN12C, 0.0245 µM (active); with SNB-19, 0.00843 µM (active); in the assay with SNB-75, 0.00427 µM (active). The GI50 with SW-620 is 0.0248 µM (active); in the assay with UACC-62, 0.00244 µM (active).

`COc1cc([C@@H]2c3cc4c(cc3C[C@H]3COC(=O)[C@@H]32)OCO4)cc(OC)c1OC` [DESOXYPODOPHYLLOTOXIN]: the GI50 in the assay on 786-0 is 0.00372 µM (active); in the assay with CAKI-1, 0.00711 µM (active); with HOP-92 it was 0.199 µM (active); in the assay with IGROV-1 it was 0.0103 µM (active); in the assay on M19-MEL it was 0.00986 µM (active); in the assay with MCF7, 0.00875 µM (active). For the same compound, the GI50 in the assay with MDA-N is 0.00222 µM (active); with MOLT-4, 0.00893 µM (active); in the assay on SF-268, 0.00843 µM (active); with SF-295, 0.00632 µM (active); in the assay on SN12C it was 0.00995 µM (active); in the assay on SNB-19 it was 0.0092 µM (active). The GI50 in the assay on SNB-75 is 0.0655 µM (active); in the assay on SW-620, 0.0091 µM (active); in the assay with UACC-62 it was 0.00912 µM (active).

A word on the GI50: it is the concentration that inhibits growth by half.
